Results published in patent US5061794A, “Cephalosporin derivatives, and antibacterial agents” (priority 1986, dated 1991).
Like-named read-outs stand apart in the source and are kept apart here.

Columns and labels:
E. coli CSH(RE45) = assay: microbe, parasite or virus in culture; type: cell-based; conditions: Escherichia coli, 16 h, read-out: Minimum Inhibitory Concentration (MIC), *E. coli CSH(RE45), lactamase-producing strain; 10^6 CFU/ml
Outline: (§1)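 Agar dilution: MH agar + graded drug conc.; inoculum 10^6 CFU/ml (overnight MH broth culture, one loopful); 37° C., 16 h; MIC, μg/ml.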

E. coli CSH2 (RK1) = assay: microbe, parasite or virus in culture; type: cell-based; conditions: Escherichia coli, 16 h, read-out: Minimum Inhibitory Concentration (MIC), *E. coli CSH2 (RK1), lactamase-producing strain; 10^6 CFU/ml
Outline: as §1

E. cloacae 963 = assay: in vitro antibacterial activity, agar plate dilution method (MIC); type: cell-based; conditions: 10^6 CFU/ml
Outline: as §1

E. cloacae Nek 39 = assay: as above; type: cell-based; conditions: Enterobacter cloacae, NEK39, 16 h, 10^6 CFU/ml
Outline: as §1

E. coli GN5482 = assay: as above; type: cell-based; conditions: Escherichia coli, GN5482, 16 h
Outline: as §1

E. coli NIHJ JC2 = assay: as above; type: cell-based; conditions: Escherichia coli, NIHJJC2, 16 h, read-out: Minimum Inhibitory Concentration (MIC), E. coli NIHJ JC2, 10^6 CFU/ml, 37° C.
Outline: as §1

K. oxytoca GN10650 = assay: as above; type: cell-based; conditions: Klebsiella oxytoca, 10^6 CFU/ml
Outline: as §1

K. pneumoniae No. 42 = assay: as above; type: cell-based; conditions: Klebsiella pneumoniae, NO.42, 16 h, read-out: Minimum Inhibitory Concentration (MIC), *K. pneumoniae No. 42, lactamase-producing strain; 10^6 CFU/ml
Outline: as §1

K. pneumoniae PCI-602 = assay: as above; type: cell-based; conditions: Klebsiella pneumoniae, PCI602, 16 h, 10^6 CFU/ml
Outline: as §1

M. morganii GN5407 = assay: as above; type: cell-based; conditions: Morganella morganii, GN5407, 16 h, read-out: Minimum Inhibitory Concentration (MIC), *M. morganii GN5407, lactamase-producing strain; 10^6 CFU/ml
Outline: as §1

P. vulgaris HX-19 = assay: as above; type: cell-based; conditions: Proteus vulgaris, HX19, 16 h, P. vulgaris HX-19; 10^6 CFU/ml; read-out: Minimum Inhibitory Concentration (MIC)
Outline: as §1

P. vulgaris No. 33 = assay: as above; type: cell-based; conditions: Proteus vulgaris, NO.33, 16 h, read-out: Minimum Inhibitory Concentration (MIC), *P. vulgaris No. 33, lactamase-producing strain; 10^6 CFU/ml
Outline: as §1

S. aureus 209P NIHJ-JC1 = assay: as above; type: cell-based; conditions: Staphylococcus aureus, 16 h
Outline: as §1

S. marcescens IAM 1184 = assay: as above; type: cell-based; conditions: Serratia marcescens, IAM1184, 16 h, read-out: Minimum Inhibitory Concentration (MIC)
Outline: as §1

S. marcescens No. 16-2 = assay: as above; type: cell-based; conditions: Serratia marcescens, NO.162, 16 h
Outline: as §1

Ps. aeruginosa AK 109 = assay: as above; type: cell-based, Pseudomonas aeruginosa; conditions: Pseudomonas aeruginosa, AK109, 16 h, Ps. aeruginosa AK 109; 10^6 CFU/ml; read-out: Minimum Inhibitory Concentration (MIC)
Outline: as §1

Ps. aeruginosa AKR17 = assay: as above; type: cell-based, Pseudomonas aeruginosa; conditions: Pseudomonas aeruginosa, read-out: Minimum Inhibitory Concentration (MIC)
Outline: as §1

Ps. aeruginosa IF03445 = assay: as above; type: cell-based, Pseudomonas aeruginosa; conditions: Pseudomonas aeruginosa, 10^6 CFU/ml
Outline: as §1

Ps. cepacia 23 = assay: as above; type: cell-based, Pseudomonas cepacia; conditions: read-out: Minimum Inhibitory Concentration (MIC)
Outline: as §1

A. calcoaceticus No. 4 = assay: as above; type: cell-based, Acinetobacter calcoaceticus; conditions: Acinetobacter calcoaceticus, NO.4, 16 h, 10^6 CFU/ml
Outline: as §1

[1] = Enterobacter cloacae, 963, 16 h, read-out: Minimum Inhibitory Concentration (MIC), E. cloacae 963
[2] = read-out: Minimum Inhibitory Concentration (MIC), *E. cloacae Nek 39, lactamase-producing strain
[3] = read-out: Minimum Inhibitory Concentration (MIC), *E. coli GN5482, lactamase-producing strain, 10^6 CFU/ml
[4] = GN10650, 16 h, read-out: Minimum Inhibitory Concentration (MIC), *K. oxytoca GN10650, lactamase-producing strain
[5] = read-out: Minimum Inhibitory Concentration (MIC)
[6] = read-out: Minimum Inhibitory Concentration (MIC), *S. marcescens No. 16-2, lactamase-producing strain, 10^6 CFU/ml
[7] = 16 h, Ps. aeruginosa AKR17, 10^6 CFU/ml
[8] = 16 h, Ps. aeruginosa IF03445, read-out: Minimum Inhibitory Concentration (MIC)
[9] = read-out: Minimum Inhibitory Concentration (MIC), A. calcoaceticus No. 4
[10] = read-out: Minimum Inhibitory Concentration (MIC), K. pneumoniae PCI-602
[11] = S. marcescens IAM 1184, 10^6 CFU/ml
[12] = IF03445, 16 h, read-out: Minimum Inhibitory Concentration (MIC), Ps. aeruginosa IF03445
[13] = Burkholderia cepacia, 16 h, Ps. cepacia 23, 10^6 CFU/ml
[14] = A. calcoaceticus No. 4, read-out: Minimum Inhibitory Concentration (MIC)
[15] = *S. marcescens No. 16-2, lactamase-producing strain, 10^6 CFU/ml, read-out: Minimum Inhibitory Concentration (MIC)

Row | SMILES | MIC (E. coli CSH(RE45)) [µg/mL] | MIC (E. coli CSH2 (RK1)) [µg/mL] | MIC (E. cloacae 963; [1]) [µg/mL] | MIC (E. cloacae Nek 39; [2]) [µg/mL] | MIC (E. coli NIHJ JC2) [µg/mL] | MIC (K. oxytoca GN10650; [4]) [µg/mL] | MIC (K. pneumoniae No. 42) [µg/mL] | MIC (M. morganii GN5407) [µg/mL] | MIC (P. vulgaris HX-19) [µg/mL] | MIC (P. vulgaris No. 33) [µg/mL] | MIC (S. aureus 209P NIHJ-JC1; [5]) [µg/mL] | MIC (S. marcescens IAM 1184) [µg/mL] | MIC (S. marcescens No. 16-2; [6]) [µg/mL] | MIC (Ps. aeruginosa AK 109) [µg/mL] | MIC (Ps. aeruginosa AKR17; [7]) [µg/mL] | MIC (Ps. aeruginosa IF03445; [8]) [µg/mL] | MIC (Ps. cepacia 23; Burkholderia cepacia, 23, 16 h) [µg/mL] | MIC (E. coli GN5482; [5]) [µg/mL] | MIC (K. pneumoniae PCI-602; [10]) [µg/mL] | MIC (A. calcoaceticus No. 4; [14]) [µg/mL] | other results
1 | CO/N=C(\C(=O)N[C@@H]1C(=O)N2C(C(=O)O)=C(CSc3ncc(-c4ccccc4)o3)CS[C@H]12)c1csc(N)n1 [compound 21, sodium 7β-[2-(2-aminothiazol-4-yl)-2methoxyiminoacetamido]-3-(5-phenyloxazol-2-yl)thiomethyl-3-cephem-4-carboxylate, reference compound] | 1.56 | 0.78 | 3.12 | 6.25 | 1.56 | 12.5 | 3.12 | 1.56 | 0.0125 | 0.78 | 0.39 | 0.78 | 6.25 | 50 | > 100 | 50 | 0.78 | – | – | – | MIC (E. coli GN5482; [3]): 0.78 µg/mL; MIC (K. pneumoniae PCI-602; K. pneumoniae PCI-602, read-out: Minimum Inhibitory Concentration (MIC)): 0.0125 µg/mL; MIC (A. calcoaceticus No. 4; [9]): 12.5 µg/mL
2 | Nc1nc(/C(=N/OC2(C(=O)O)CC2)C(=O)N[C@@H]2C(=O)N3C(C(=O)O)=C(CSc4nnc(-c5ccc(O)c(O)c5)o4)CS[C@H]23)cs1 [Ex. 12, disodium 7β-[2-(2-aminothiazol-4-yl)-2-(1-carboxylate-1-cyclopropoxyimino)acetamido]-3-[5-(3,4-dihydroxvphenyl)-1,3,4-oxadiazol-2-vl]thiomethyl-3-cephem-4-carboxylate] | < 0.006 | < 0.006 | 0.05 | 0.025 | 0.05 | 0.025 | 0.025 | 0.025 | < 0.006 | 0.025 | 12.5 | – | 1.56 | 0.2 | – | – | – | 0.2 | < 0.006 | 0.05 | MIC (S. marcescens IAM 1184; [11]): 0.0125 µg/mL; MIC (Ps. aeruginosa AKR17; AKR17, 16 h): 3.12 µg/mL; MIC (Ps. aeruginosa IF03445; [12]): 0.39 µg/mL; MIC (Ps. cepacia 23; [13]): < 0.006 µg/mL
3 | C=CCO/N=C(\C(=O)N[C@@H]1C(=O)N2C(C(=O)O)=C(CSc3nnc(-c4ccc(O)c(O)c4)o3)CS[C@H]12)c1csc(N)n1 [Ex. 8, sodium 7β-[2-allyloxyimino-2-(2-aminothiazol-4-yl)acetamido]-3-[5-(3,4-dihydroxyphenyl)-1,3,4-oxadiazol-2-yl]thiomethyl-3-cephem-4carboxylate] | 0.78 | < 0.006 | – | 0.05 | 0.1 | 3.12 | 0.05 | 0.0125 | < 0.006 | 0.0125 | – | – | 1.56 | 0.2 | 100 | 0.2 | – | 0.39 | < 0.006 | – | MIC (E. cloacae 963; Enterobacter cloacae, 16 h, E. cloacae 963, read-out: Minimum Inhibitory Concentration (MIC)): < 0.006 µg/mL; MIC (S. aureus 209P NIHJ-JC1; read-out: Minimum Inhibitory Concentration (MIC), S. aureus 209P NIHJ-JC1, 10^6 CFU/ml, 37° C., 16 hours): 0.78 µg/mL; MIC (S. marcescens IAM 1184; [11]): 0.0125 µg/mL; MIC (Ps. cepacia 23; [13]): 0.025 µg/mL; MIC (A. calcoaceticus No. 4; [9]): 0.1 µg/mL
4 | CO/N=C(\C(=O)N[C@@H]1C(=O)N2C(C(=O)O)=C(CSc3nc(-c4ccc(O)cc4)c(CC(=O)O)s3)CS[C@H]12)c1csc(N)n1 [compound 17, disodium 7β-[2-(2-aminothiazol-4-yl)-2-methoxyminoacetamido]-3-[5-carboxylatemethyl-4-(4-hydroxyphenyl)thiazol-2-yl]thiomethyl-3-cephem-4-carboxylate, reference compound] | 0.78 | 0.39 | 0.39 | 12.5 | 0.39 | – | 0.78 | 0.39 | < 0.006 | 0.1 | 3.12 | 0.39 | – | 50 | > 100 | 50 | 6.25 | 3.12 | 0.1 | 100 | MIC (K. oxytoca GN10650; 16 h, *K. oxytoca GN10650, lactamase-producing strain, read-out: Minimum Inhibitory Concentration (MIC)): 25 µg/mL; MIC (S. marcescens No. 16-2; [15]): 100 µg/mL
5 | Nc1nc(/C(=N/OCC(=O)O)C(=O)N[C@@H]2C(=O)N3C(C(=O)O)=C(CSc4nnc(-c5ccc(O)c(O)c5)o4)CS[C@H]23)cs1 [compound 10, disodium 78-[2-(2-aminothiazol-4-yl)-2-carboxylatemethoxyiminoacetamido]-3-[5-(3,4-dihydroxyphenyl)-1,3,4-oxadiazol-2-yl]thiomethvl-3-cephem-4-carboxylate] | 0.0125 | < 0.006 | 0.025 | 0.05 | 0.05 | 0.1 | 0.025 | 0.025 | < 0.006 | 0.025 | 12.5 | 0.0125 | – | 0.2 | – | – | – | 0.39 | < 0.006 | 0.05 | MIC (S. marcescens No. 16-2; [5]): 0.39 µg/mL; MIC (Ps. aeruginosa AKR17; AKR17, 16 h): 12.5 µg/mL; MIC (Ps. aeruginosa IF03445; [12]): 0.39 µg/mL; MIC (Ps. cepacia 23; [13]): < 0.006 µg/mL
6 | CC(C)(O/N=C(\C(=O)N[C@@H]1C(=O)N2C(C(=O)O)=C(CSc3nc(-c4ccccc4)c(CC(=O)O)s3)CS[C@H]12)c1csc(N)n1)C(=O)O [compound 16, trisodium 7β-[2-(2-aminothiazol-4-yl)-2-(1-carboxylate-1-methylethoxyimino)acetamido]-3-(5-carboxylatemethyl-4-phenylthiazol-2-yl)thio-methyl-3-cephem-4-carboxylate, reference compound] | 3.12 | 6.25 | 6.25 | – | 6.25 | 3.12 | 3.12 | 1.56 | < 0.006 | 0.2 | – | 1.56 | – | 50 | > 100 | 50 | 6.25 | – | 1.56 | > 100 | MIC (E. cloacae Nek 39; *E. cloacae Nek 39, lactamase-producing strain, read-out: Minimum Inhibitory Concentration (MIC)): 25 µg/mL; MIC (E. coli GN5482; [3]): 6.25 µg/mL; MIC (S. aureus 209P NIHJ-JC1; S. aureus 209P NIHJ-JC1, 10^6 CFU/ml, 37° C., 16 hours, read-out: Minimum Inhibitory Concentration (MIC)): 50 µg/mL; MIC (S. marcescens No. 16-2; [15]): 50 µg/mL
